Experimental findings from patent US10266560B2, “Bile acid analogs as FXR/TGR5 agonists and methods of use thereof” (Enanta Pharmaceuticals, Inc., priority 2014, dated 2019) are described below.

Broadly, the EC50 is the concentration that produces a half-maximal response.

Where two headings read alike, the source gives them in different places.

For the experiment, the target named is Human FXR (NR1H4) (Homo sapiens (Human), UniProt Q96RI1). As to the kind of experiment: Human FXR (NR1H4) Assay (Gal4 promoter driven luciferase reporter transactivation in CHO cells). Type of experiment: cell-based. The source says: Assays Human FXR (NR1H4) Assay
Human FXR (NR1H4), sequence (Q96RI1 whole entry, the tested form may be a part): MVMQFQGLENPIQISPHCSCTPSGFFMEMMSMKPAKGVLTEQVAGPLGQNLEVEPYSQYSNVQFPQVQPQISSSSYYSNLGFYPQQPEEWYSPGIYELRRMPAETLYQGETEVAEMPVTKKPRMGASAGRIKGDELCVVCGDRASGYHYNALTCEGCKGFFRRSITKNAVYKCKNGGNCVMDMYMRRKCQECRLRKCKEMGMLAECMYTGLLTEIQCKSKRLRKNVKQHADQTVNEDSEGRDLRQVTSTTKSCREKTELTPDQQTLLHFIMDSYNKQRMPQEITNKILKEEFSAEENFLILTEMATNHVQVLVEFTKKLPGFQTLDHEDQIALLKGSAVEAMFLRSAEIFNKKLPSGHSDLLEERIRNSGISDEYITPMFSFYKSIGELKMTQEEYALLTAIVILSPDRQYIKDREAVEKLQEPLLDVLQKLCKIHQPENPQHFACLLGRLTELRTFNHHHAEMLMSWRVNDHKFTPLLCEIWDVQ
Determination of a ligand mediated Gal4 promoter driven transactivation to quantify ligand binding mediated activation of FXR. FXR Reporter Assay kit purchased from Indigo Bioscience (Catalogue number: IB00601) to determine the potency and efficacy of compound developed by Enanta that can induce FXR activation. The principle application of this reporter assay system is to quantify functional activity of human FXR. The assay utilizes non-human mammalian cells, CHO (Chinese hamster ovary) cells engineered to express human NR1H4 protein (referred to as FXR). Reporter cells also incorporate the cDNA encoding beetle luciferase which catalyzes the substrates and yields photon emission. Luminescence intensity of the reaction is quantified using a plate-reading luminometer, Envision. Reporter Cells include the luciferase reporter gene functionally linked to an FXR responsive promoter. Thus, quantifying changes in luciferase expression in the treated reporter cells provides a sensitive surrogate measure of the changes in FXR activity. […] The assay is according to the manufacturer's instructions. In brief, the assay was performed in white, 96 well plates using final volume of 200 ul containing cells with different doses of compounds. Retrieve Reporter Cells from −80° C. storage. Perform a rapid thaw of the frozen cells by transferring a 10 ml volume of 37° C. cell recovery medium into the tube of frozen cells. Recap the tube of Reporter Cells and immediately place it in a 37° C. water bath for 5-10 minutes. Retrieve the tube of Reporter Cell Suspension from the water bath. Sanitize the outside surface of the tube with a 70% alcohol swab, and then transfer it into the cell culture hood. Dispense 100 μl of cell suspension into each well of the 96-well Assay Plate. Transfer the plate into 37° C. incubator, allowing the cells adherent to the bottom of the well. Dilute compounds in Dilution Plate (DP), and administrate to cells at Assay Plate (AP). DMSO content of the samples was kept at 0.2%. Cells were incubated for additional 22 hours before luciferase activities were measured. Thirty minutes before intending to quantify FXR activity, remove Detection Substrate and Detection Buffer from the refrigerator and place them in a low-light area so that they may equilibrate to room temperature. Remove the plate's lid and discard all media contents by ejecting it into an appropriate waste container. Gently tap the inverted plate onto a clean absorbent paper towel to remove residual droplets. Cells will remain tightly adhered to well bottoms. Add 100 μl of luciferase detection reagent to each well of the assay plate. Allow the assay plate to rest at room temperature for at least 5 minutes following the addition of LDR. Set the instrument (Envision) to perform a single 5 second “plate shake” prior to reading the first assay well. Read time may be 0.5 second (500 mSec) per well.

The mark [1] stands for this setting: FXR agonistic potency range; CHO reporter cells expressing human NR1H4, 22 hours incubation; read-out: EC50.
Where [2] appears, read: efficacy normalized to chenodeoxycholic acid (CDCA) set as 100%.

As to `CCC1C(O)C2C3CCC(C(C)CCC(=O)NS(=O)(=O)CC)C3(C)CCC2C2(C)CCC(O)CC12` (stereo not drawn) [Example 2], the half-maximal effective concentration (EC50) under setting [1] was in the range of 100 to 1000 nM. For the same compound, the “Efficacy (%)” value under setting [2] came to 258%.

Regarding `CC[C@H]1[C@@H](O)[C@@H]2[C@H](CC[C@]3(C)[C@@H]([C@H](C)CCCC(=O)NS(=O)(=O)C4CC4)CC[C@@H]23)[C@@]2(C)CC[C@@H](O)C[C@@H]12` [Example 490], the Emax (CHO; read-out: Efficacy (%)) worked out at 223%. In addition, where the note is “read-out: EC50”, the EC50 was in the range of 100 to 1000 nM.

Take `CC[C@@H]1C2C[C@H](O)CCC2(C)[C@H]2CCC3(C)C([C@H](C)CCC(=O)NS(=O)(=O)C4CCCC4)CC[C@H]3[C@@H]2[C@@H]1O` (stereo partly drawn) [Example 482]: the Emax (CHO, read-out: Efficacy (%)) was 342%. In addition, the EC50 under setting [1] was less than 100 nM.

As for `CC[C@@H]1C2C[C@H](O)CCC2(C)[C@H]2CCC3(C)C([C@H](C)CCC(=O)NS(=O)(=O)c4cccs4)CC[C@H]3[C@@H]2[C@@H]1O` (stereo partly drawn) [Example 467], the Emax (CHO; read-out: Efficacy (%)) was 315%. Besides, the 50% effective concentration (EC50) (read-out: EC50) lay within 100 to 1000 nM.

Take `CC[C@@H]1C2C[C@H](O)CCC2(C)[C@H]2CCC3(C)C([C@H](C)CCC(=O)NS(=O)(=O)c4cnccn4)CC[C@H]3[C@@H]2[C@@H]1O` (stereo partly drawn) [Example 469]: the Emax (CHO; read-out: Efficacy (%)) turned out to be 447%. In addition, the half-maximal effective concentration (EC50) (read-out: EC50) was 1000 to 10000 nM.

On to `CC[C@@H]1C2C[C@H](O)CCC2(C)[C@H]2CCC3(C)C([C@H](C)CCC(=O)NS(=O)(=O)c4cccc(C)c4)CC[C@H]3[C@@H]2[C@@H]1O` (stereo partly drawn) [Example 457], for which the Emax (CHO, read-out: Efficacy (%)) was 382%. Also, under setting [1], the EC50 was less than 100 nM.

Take `CC[C@@H]1C2C[C@H](O)CCC2(C)[C@H]2CCC3(C)C([C@H](C)CCC(=O)NS(=O)(=O)c4ccc(C)c(F)c4)CC[C@H]3[C@@H]2[C@@H]1O` (stereo partly drawn) [Example 465]: where the note is “CHO, read-out: Efficacy (%)”, the Emax amounted to 303%. The concentration giving a half-maximal response (EC50) under setting [1] is less than 100 nM.

On to `CC[C@@H]1C2C[C@H](O)CCC2(C)[C@H]2CCC3(C)C([C@H](C)CCC(=O)NS(=O)(=O)c4ccccn4)CC[C@H]3[C@@H]2[C@@H]1O` (stereo partly drawn) [Example 462], for which the Emax (CHO; read-out: Efficacy (%)) came to 297%. The 50% effective concentration (EC50) (read-out: EC50) was in the range of 100 to 1000 nM.

With `CC[C@H]1[C@@H](O)[C@@H]2[C@H](CC[C@]3(C)[C@@H]([C@H](C)CCCC(=O)NS(=O)(=O)C4(C)CC4)CC[C@@H]23)[C@@]2(C)CC[C@@H](O)C[C@@H]12` [Example 492], the Emax (CHO; read-out: Efficacy (%)) worked out at 226%. In addition, the EC50 (read-out: EC50) is 100 to 1000 nM.

As for `CCC1C(O)C2C3CCC(C(C)CCC(=O)NS(=O)(=O)c4ccccc4N)C3(C)CCC2C2(C)CCC(O)CC12` (stereo not drawn) [Example 19], under setting [1], the EC50 lay within 100 to 1000 nM. Also, the “Efficacy (%)” value under setting [2] turned out to be 176%.

Turning to `CC[C@@H]1C2C[C@H](O)CCC2(C)[C@H]2CCC3(C)C([C@H](C)CCC(=O)NS(=O)(=O)c4ccccc4C(F)(F)F)CC[C@H]3[C@@H]2[C@@H]1O` (stereo partly drawn) [Example 459], where the note is “CHO; read-out: Efficacy (%)”, the Emax came to 310%. For the same compound, the 50% effective concentration (EC50) (read-out: EC50) lay in the range of 100 to 1000 nM.

Take `CC[C@H]1[C@@H](O)[C@@H]2[C@H](CC[C@]3(C)[C@@H]([C@H](C)C[C@H](C)C(=O)NS(=O)(=O)c4ccc(C(C)(C)C)cc4)CC[C@@H]23)[C@@]2(C)CC[C@@H](O)C[C@@H]12` [Example 488]: under “CHO; read-out: Efficacy (%)”, the Emax turned out to be 132%. For the same compound, under “read-out: EC50”, the concentration for a half-maximal effect (EC50) was 100 to 1000 nM.

In the case of `CC[C@@H]1C2C[C@H](O)CCC2(C)[C@H]2CCC3(C)C([C@H](C)CCC(=O)NS(=O)(=O)c4cccc5ncccc45)CC[C@H]3[C@@H]2[C@@H]1O` (stereo partly drawn) [Example 470], where the note is “CHO; read-out: Efficacy (%)”, the Emax amounted to 439%. Further, for the setting “read-out: EC50”, the EC50 was in the range of 100 to 1000 nM.

Take `CC[C@H]1[C@@H](O)[C@@H]2[C@H](CC[C@]3(C)[C@@H]([C@H](C)CCCC(=O)NS(=O)(=O)c4ccc(C(C)(C)C)cc4)CC[C@@H]23)[C@@]2(C)CC[C@@H](O)C[C@@H]12` [Example 491]: where the note is “CHO, read-out: Efficacy (%)”, the Emax was 182%. Further, the 50% effective concentration (EC50) under setting [1] was less than 100 nM.

Take `CC[C@H]1[C@@H](O)[C@@H]2[C@H](CC[C@]3(C)[C@@H]([C@H](C)CCC(=O)N(C)S(=O)(=O)c4ccccc4)CC[C@@H]23)[C@@]2(C)CC[C@@H](O)C[C@@H]12` [Example 489]: the Emax (CHO; read-out: Efficacy (%)) amounted to 231%. The EC50 (read-out: EC50) was 1000 to 10000 nM.

For `CC[C@@H]1C2C[C@H](O)CCC2(C)[C@H]2CCC3(C)C([C@H](C)CCC(=O)NS(=O)(=O)c4cccc(OC)c4)CC[C@H]3[C@@H]2[C@@H]1O` (stereo partly drawn) [Example 477], the Emax (CHO, read-out: Efficacy (%)) is 596%. Under setting [1], the EC50 is less than 100 nM.

Take `CC[C@@H]1C2C[C@H](O)CCC2(C)[C@H]2CCC3(C)C([C@H](C)CCC(=O)NS(=O)(=O)c4ccccc4Cl)CC[C@H]3[C@@H]2[C@@H]1O` (stereo partly drawn) [Example 451]: for the setting “CHO; read-out: Efficacy (%)”, the Emax turned out to be 274%. The EC50 (read-out: EC50) lay in the range of 100 to 1000 nM.

Take `CCC1C(O)C2C3CCC(C(C)CCC(=O)NS(=O)(=O)N4CCOCC4)C3(C)CCC2C2(C)CCC(O)CC12` (stereo not drawn) [Example 16]: the EC50 under setting [1] lay in the range of 1000 to 10000 nM. Moreover, the “Efficacy (%)” value under setting [2] is reported as 219%.

`CCC1C(O)C2C3CCC(C(C)CCC(=O)NS(=O)(=O)F)C3(C)CCC2C2(C)CCC(O)CC12` (stereo not drawn) [Example 25]: under setting [1], the concentration giving a half-maximal response (EC50) was 1000 to 10000 nM. In addition, the “Efficacy (%)” value under setting [2] turned out to be 347%.

`C=CCS(=O)(=O)NC(=O)CCC(C)C1CCC2C3C(O)C(CC)C4CC(O)CCC4(C)C3CCC12C` (stereo not drawn) [Example 9]: under setting [1], the EC50 lay in the range of 100 to 1000 nM. Besides, the “Efficacy (%)” value under setting [2] is reported as 248%.

Take `CCCCS(=O)(=O)NC(=O)CCC(C)C1CCC2C3C(O)C(CC)C4CC(O)CCC4(C)C3CCC12C` (stereo not drawn) [Example 4]: the concentration for a half-maximal effect (EC50) under setting [1] lay in the range of 100 to 1000 nM. Besides, the “Efficacy (%)” value under setting [2] was determined as 376%.

For the compound `CC[C@@H]1C2C[C@H](O)CCC2(C)[C@H]2CCC3(C)C([C@H](C)CCC(=O)NS(=O)(=O)c4cccc(F)c4)CC[C@H]3[C@@H]2[C@@H]1O` (stereo partly drawn) [Example 456], the Emax (CHO, read-out: Efficacy (%)) was determined as 415%. Further, under setting [1], the EC50 is less than 100 nM.

`CCC1C(O)C2C3CCC(C(C)CCC(=O)NS(N)(=O)=O)C3(C)CCC2C2(C)CCC(O)CC12` (stereo not drawn) [Example 17]: the EC50 under setting [1] lay in the range of 1000 to 10000 nM. In addition, under setting [2], the “Efficacy (%)” value amounted to 349%.

`CC[C@H]1[C@@H](O)[C@@H]2[C@H](CC[C@]3(C)[C@@H]([C@H](C)C[C@@H](C)C(=O)NS(=O)(=O)c4ccc(C(C)(C)C)cc4)CC[C@@H]23)[C@@]2(C)CC[C@@H](O)C[C@@H]12` [Example 485]: the Emax (CHO; read-out: Efficacy (%)) was 185%. Besides, the concentration for a half-maximal effect (EC50) (read-out: EC50) fell in the range of 100 to 1000 nM.

Consider `CC[C@@H]1C2C[C@H](O)CCC2(C)[C@H]2CCC3(C)C([C@H](C)CCC(=O)NS(=O)(=O)c4ccc(OC)cc4)CC[C@H]3[C@@H]2[C@@H]1O` (stereo partly drawn) [Example 455], for which the Emax (CHO, read-out: Efficacy (%)) came to 417%. In addition, the 50% effective concentration (EC50) under setting [1] was less than 100 nM.

On to `CC[C@H]1[C@@H](O)[C@@H]2[C@H](CC[C@]3(C)[C@@H]([C@H](C)C[C@@H](C)C(=O)NS(=O)(=O)C4CC4)CC[C@@H]23)[C@@]2(C)CC[C@@H](O)C[C@@H]12` [Example 486], for which, under “CHO; read-out: Efficacy (%)”, the Emax came to 387%. Under “read-out: EC50”, the half-maximal effective concentration (EC50) lay in the range of 100 to 1000 nM.

As to `CC[C@@H]1C2C[C@H](O)CCC2(C)[C@H]2CCC3(C)C([C@H](C)CCC(=O)NS(=O)(=O)c4ccncc4)CC[C@H]3[C@@H]2[C@@H]1O` (stereo partly drawn) [Example 463], the Emax (CHO; read-out: Efficacy (%)) was 251%. Also, the concentration for a half-maximal effect (EC50) (read-out: EC50) was in the range of 1000 to 10000 nM.
